Literature values, collected in article PMC11237654, “Optimization of quenched fluorescent peptide substrates of SARS-CoV-2 3CL^pro main protease (Mpro) from proteomic identification of P6—P6' active site specificity” (Journal of Virology, 2024).
Square brackets hold non-standard residues; d marks the D form. * marks the point of attachment. ACC = NC(=O)Cc1cc(=O)oc2cc(N*)ccc12; Tle = CC(C)(C)[C@H](N)C(=O)O; Abu = CC[C@H](N)C(=O)O

Target: SARS-CoV-2 3CL^pro (Severe acute respiratory syndrome coronavirus 2, UniProt P0DTD1, Q3569A)
Conditions: cited from earlier work

Substance: Ac-[Abu][Tle]LQ-{ACC}
- kcat/KM: 859 M⁻¹ s⁻¹
